Assays:
[1] = Liquid
[2] = refractive index (Na D-line) (dimensionless); details: 299.15 K; 101.33 kPa; Liquid; Standard Abbe refractometry

COC=O [methyl methanoate]
Details	mass density [kg/m3]
[1], 299.15 K, 101.33 kPa	964.78

[1]
Details	vapor or sublimation pressure [kPa]
301.23 K	88.7
301.42 K	89.37
301.78 K	90.67
302.15 K	91.98
302.53 K	93.31
302.89 K	94.64
303.41 K	95.98
303.77 K	97.36
304.13 K	98.69
304.44 K	99.97
304.79 K	101.32
304.83 K	101.39
305.21 K	102.89
305.51 K	104.06
305.85 K	105.38
306.2 K	106.72
306.54 K	108.06
306.84 K	109.39
307.2 K	110.77
307.54 K	112.13
307.85 K	113.44
308.13 K	114.75
308.47 K	116.1
308.81 K	117.47
309.15 K	118.77
309.43 K	120.12
309.72 K	121.43
310.03 K	122.74
310.33 K	124.08
310.64 K	125.47
310.92 K	126.77
311.19 K	128.14
311.48 K	129.44
311.78 K	130.75
312.06 K	132.09
312.37 K	133.48
312.67 K	134.81
312.9 K	136.09
313.17 K	137.42
313.45 K	138.75
313.74 K	139.83
314.01 K	141.42
314.3 K	142.78
314.37 K	143.32
314.6 K	144.13
314.63 K	144.65
314.88 K	145.45
314.93 K	145.65
315.12 K	146.74
315.18 K	147.03
315.52 K	148.79
315.56 K	149.41
315.77 K	150.23
316 K	151.48
316.06 K	152.08
316.23 K	152.97
316.47 K	154.04
316.57 K	154.75
316.71 K	155.22
316.95 K	156.54
317.05 K	157.42
317.17 K	157.73
317.36 K	158.92
317.4 K	159.14
317.64 K	160.45
317.88 K	161.72
318 K	162.65
318.34 K	164.18
318.51 K	165.32
318.68 K	166.44
319.07 K	168.3
319.37 K	170
319.45 K	170.76
319.67 K	171.98
319.93 K	173.32
320.22 K	174.76
320.34 K	175.82
320.65 K	177.38
320.78 K	178.57
321.04 K	180.01
321.34 K	181.7
321.46 K	182.37
321.72 K	184.02
321.94 K	185.46
322.2 K	186.83

Details	refractive index
[2]	1.3402

Reference: the NIST ThermoML archive (doi:10.1021/je034290l)
